This note sets out measurements from patent publication US20210255193A1, “LYSINE REACTIVE PROBES AND USES THEREOF” (The Scripps Research Institute, priority 2017, published 2021).

Assay in all cases: competitive isoTOP-ABPP
Common to all, as to format: binding

Assay [1] has as its target T1, DYNC1H1 Cytoplasmic dynein 1 heavy chain 1 (Homo sapiens, UniProt Q14204).
T1 construct: isoTOP-ABPP experiments performed in cell lysates (in vitro); endogenous in cells; host or cells: soluble proteome of human cancer cell lines (MDA-MB-231, Ramos, Jurkat)
Particulars: for R value (DMSO/fragment) for probe 1 labeling: Q14204_K1649; for R value (DMSO/fragment) for probe 1 labeling / isoTOP-ABPP reactivity ratio at lysine Q14204_K1649 / isoTOP-ABPP ratio (R) at liganded lysine Q14204_K1649: 50 uM, in vitro; for R value (DMSO/fragment) for probe 1 labeling / isoTOP-ABPP reactivity ratio at lysine Q14204_K1649: 231 sol; for isoTOP-ABPP ratio (R) at liganded lysine Q14204_K1649: sol, 231; for isoTOP-ABPP ratio, lysine Q14204_K1649: 50 uM_231_sol_in vitro. The gist of the method: (§1)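 Here, isoTOP-ABPP measures loss of STP-alkyne labeling at individual lysines after fragment exposure in lysate. Activated esters are dosed at 50 μM, guanidinylating agents at 100 μM; the probe follows at 0.1 mM for 1 h. R ≥4 marks a liganded lysine.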

Assay [2] deals with T2, ERAP1 Endoplasmic reticulum aminopeptidase 1 (Homo sapiens, UniProt Q9NZ08).
T2 construct: endogenous in cells; host or cells: MDA-MB-231 lysate
T2 sequence (Q9NZ08 whole entry): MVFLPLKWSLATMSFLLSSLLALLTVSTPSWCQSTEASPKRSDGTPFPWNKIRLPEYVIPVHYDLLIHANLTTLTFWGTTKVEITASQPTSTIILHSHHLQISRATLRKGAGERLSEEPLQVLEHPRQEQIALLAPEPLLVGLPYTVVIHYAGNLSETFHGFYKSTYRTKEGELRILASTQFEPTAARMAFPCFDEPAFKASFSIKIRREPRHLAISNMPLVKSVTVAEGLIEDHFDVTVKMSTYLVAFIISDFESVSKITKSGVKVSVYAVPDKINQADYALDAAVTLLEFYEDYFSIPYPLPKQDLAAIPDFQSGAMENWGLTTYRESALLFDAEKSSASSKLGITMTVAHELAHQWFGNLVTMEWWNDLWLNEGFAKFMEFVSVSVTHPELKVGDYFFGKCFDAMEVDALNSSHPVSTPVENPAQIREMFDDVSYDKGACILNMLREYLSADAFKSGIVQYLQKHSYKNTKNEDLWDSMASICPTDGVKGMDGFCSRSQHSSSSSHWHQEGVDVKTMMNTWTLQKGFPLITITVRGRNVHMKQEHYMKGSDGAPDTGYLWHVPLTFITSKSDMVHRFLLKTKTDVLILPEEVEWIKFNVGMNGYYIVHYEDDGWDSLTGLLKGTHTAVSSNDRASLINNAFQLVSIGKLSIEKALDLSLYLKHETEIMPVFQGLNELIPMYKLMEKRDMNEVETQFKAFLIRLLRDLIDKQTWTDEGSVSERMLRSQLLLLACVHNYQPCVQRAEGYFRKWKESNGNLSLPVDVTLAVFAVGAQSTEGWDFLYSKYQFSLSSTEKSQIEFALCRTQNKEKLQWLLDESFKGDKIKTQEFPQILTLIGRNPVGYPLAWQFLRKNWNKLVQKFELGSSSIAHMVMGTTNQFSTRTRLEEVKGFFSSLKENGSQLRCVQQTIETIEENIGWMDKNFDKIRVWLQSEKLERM
The note with it: for R value (DMSO/fragment) for probe 1 labeling: Q9NZ08_K685; for R value (DMSO/fragment) for probe 1 labeling / isoTOP-ABPP reactivity ratio at lysine Q9NZ08_K685 / isoTOP-ABPP ratio (R) at liganded lysine Q9NZ08_K685: 50 uM, in vitro; for R value (DMSO/fragment) for probe 1 labeling / isoTOP-ABPP reactivity ratio at lysine Q9NZ08_K685: 231 sol; for isoTOP-ABPP ratio (R) at liganded lysine Q9NZ08_K685: sol, 231; for isoTOP-ABPP ratio, lysine Q9NZ08_K685: 50 uM_231_sol_in vitro. An outline of the steps: as §1

For assay [3], the target named is T3, GTPBP3 tRNA modification GTPase GTPBP3, mitochondrial (Homo sapiens, UniProt Q969Y2).
T3 construct: isoTOP-ABPP experiments performed in cell lysates (in vitro); endogenous in cells; host or cells: soluble proteome of human cancer cell lines (MDA-MB-231; Ramos and Jurkat also prepared)
T3 sequence (Q969Y2 21-492): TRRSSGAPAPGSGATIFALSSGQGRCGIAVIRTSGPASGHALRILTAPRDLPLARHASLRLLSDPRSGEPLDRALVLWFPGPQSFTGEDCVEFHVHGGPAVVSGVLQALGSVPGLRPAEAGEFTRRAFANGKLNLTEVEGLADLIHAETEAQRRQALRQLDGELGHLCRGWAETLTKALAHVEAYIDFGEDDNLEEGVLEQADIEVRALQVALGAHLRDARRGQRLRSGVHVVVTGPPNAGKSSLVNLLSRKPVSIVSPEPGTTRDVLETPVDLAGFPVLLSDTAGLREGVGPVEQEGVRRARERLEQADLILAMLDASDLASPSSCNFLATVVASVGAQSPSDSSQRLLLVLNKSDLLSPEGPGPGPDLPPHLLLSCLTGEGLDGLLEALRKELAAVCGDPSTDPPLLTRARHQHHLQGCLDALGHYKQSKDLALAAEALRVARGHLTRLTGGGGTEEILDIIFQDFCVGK
Particulars: for R value (DMSO/fragment) for probe 1 labeling: Q969Y2_K492; for R value (DMSO/fragment) for probe 1 labeling / isoTOP-ABPP reactivity ratio at lysine Q969Y2_K492 / isoTOP-ABPP ratio (R) at liganded lysine Q969Y2_K492: 50 uM, in vitro; for R value (DMSO/fragment) for probe 1 labeling / isoTOP-ABPP reactivity ratio at lysine Q969Y2_K492: 231 sol; for isoTOP-ABPP ratio (R) at liganded lysine Q969Y2_K492: sol, 231; for isoTOP-ABPP ratio, lysine Q969Y2_K492: 50 uM_231_sol_in vitro. The gist of the method: as §1

Assay [4] deals with T4, NAA25 N-alpha-acetyltransferase 25, NatB auxiliary subunit (Homo sapiens, UniProt Q14CX7).
T4 construct: isoTOP-ABPP experiments performed in cell lysates (in vitro); endogenous in cells; host or cells: soluble proteome of human cancer cell lines (MDA-MB-231; Ramos and Jurkat also prepared)
T4 sequence (Q14CX7 whole entry): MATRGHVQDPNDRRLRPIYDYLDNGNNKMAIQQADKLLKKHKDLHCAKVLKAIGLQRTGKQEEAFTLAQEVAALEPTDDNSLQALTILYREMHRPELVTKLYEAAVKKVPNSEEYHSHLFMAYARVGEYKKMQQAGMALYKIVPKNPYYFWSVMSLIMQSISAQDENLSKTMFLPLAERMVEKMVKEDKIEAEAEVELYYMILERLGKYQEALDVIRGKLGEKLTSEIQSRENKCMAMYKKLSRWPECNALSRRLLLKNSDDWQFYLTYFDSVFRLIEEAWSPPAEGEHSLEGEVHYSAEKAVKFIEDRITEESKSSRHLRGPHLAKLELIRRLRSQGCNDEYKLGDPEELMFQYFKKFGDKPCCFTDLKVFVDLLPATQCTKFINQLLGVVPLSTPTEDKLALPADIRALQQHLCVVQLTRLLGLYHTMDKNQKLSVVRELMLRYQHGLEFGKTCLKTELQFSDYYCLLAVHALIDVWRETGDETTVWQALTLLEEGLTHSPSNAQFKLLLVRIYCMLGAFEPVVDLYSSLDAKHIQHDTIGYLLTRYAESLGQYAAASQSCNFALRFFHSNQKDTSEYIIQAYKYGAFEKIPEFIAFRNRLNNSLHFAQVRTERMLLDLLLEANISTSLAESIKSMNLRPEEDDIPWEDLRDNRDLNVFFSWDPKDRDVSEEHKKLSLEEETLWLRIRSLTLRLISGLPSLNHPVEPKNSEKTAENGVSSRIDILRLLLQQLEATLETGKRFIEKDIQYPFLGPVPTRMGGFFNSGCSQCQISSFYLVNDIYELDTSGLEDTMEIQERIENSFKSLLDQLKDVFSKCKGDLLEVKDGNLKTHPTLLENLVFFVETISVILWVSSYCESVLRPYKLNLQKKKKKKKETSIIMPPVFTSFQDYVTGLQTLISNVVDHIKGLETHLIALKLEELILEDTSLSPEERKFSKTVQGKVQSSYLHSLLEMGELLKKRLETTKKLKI
Particulars: for R value (DMSO/fragment) for probe 1 labeling: Q14CX7_K575; for R value (DMSO/fragment) for probe 1 labeling / isoTOP-ABPP reactivity ratio at lysine Q14CX7_K575 / isoTOP-ABPP ratio (R) at liganded lysine Q14CX7_K575: 50 uM, in vitro; for R value (DMSO/fragment) for probe 1 labeling / isoTOP-ABPP reactivity ratio at lysine Q14CX7_K575: 231 sol; for isoTOP-ABPP ratio (R) at liganded lysine Q14CX7_K575: sol, 231; for isoTOP-ABPP ratio, lysine Q14CX7_K575: 50 uM_231_sol_in vitro. The gist of the method:
as §1

Assay [5] addresses T5, XRCC6 X-ray repair cross-complementing protein 6 (Homo sapiens, UniProt P12956).
T5 construct: isoTOP-ABPP experiments performed in cell lysates (in vitro); endogenous in cells; host or cells: soluble proteome of human cancer cell lines (MDA-MB-231; Ramos and Jurkat also prepared)
Particulars: for R value (DMSO/fragment) for probe 1 labeling: P12956_K351; for R value (DMSO/fragment) for probe 1 labeling / isoTOP-ABPP reactivity ratio at lysine P12956_K351 / isoTOP-ABPP ratio (R) at liganded lysine P12956_K351: 50 uM, in vitro; for R value (DMSO/fragment) for probe 1 labeling / isoTOP-ABPP reactivity ratio at lysine P12956_K351: 231 sol; for isoTOP-ABPP ratio (R) at liganded lysine P12956_K351: sol, 231; for isoTOP-ABPP ratio, lysine P12956_K351: 50 uM_231_sol_in vitro. An outline of the steps:
as §1

T5 sequence (P12956 2-609 limits assumed): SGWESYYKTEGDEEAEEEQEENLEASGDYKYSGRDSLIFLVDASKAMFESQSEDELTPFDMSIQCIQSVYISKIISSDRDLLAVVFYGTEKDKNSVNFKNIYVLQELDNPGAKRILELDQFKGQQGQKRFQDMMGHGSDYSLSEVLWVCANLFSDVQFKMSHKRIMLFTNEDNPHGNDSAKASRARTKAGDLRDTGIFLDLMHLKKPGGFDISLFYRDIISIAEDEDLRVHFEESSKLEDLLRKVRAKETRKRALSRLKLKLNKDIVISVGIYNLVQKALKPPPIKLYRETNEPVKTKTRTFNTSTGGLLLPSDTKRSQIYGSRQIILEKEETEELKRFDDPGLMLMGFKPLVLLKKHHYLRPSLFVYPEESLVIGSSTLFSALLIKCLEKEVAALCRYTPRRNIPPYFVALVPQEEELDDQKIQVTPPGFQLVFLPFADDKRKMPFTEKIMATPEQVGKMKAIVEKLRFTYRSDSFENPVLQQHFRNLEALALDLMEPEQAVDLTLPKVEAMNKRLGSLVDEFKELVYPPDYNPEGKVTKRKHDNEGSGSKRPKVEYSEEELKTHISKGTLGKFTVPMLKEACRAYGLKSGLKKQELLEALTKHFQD
T5 sequence (P13010 2-732 partner limits assumed): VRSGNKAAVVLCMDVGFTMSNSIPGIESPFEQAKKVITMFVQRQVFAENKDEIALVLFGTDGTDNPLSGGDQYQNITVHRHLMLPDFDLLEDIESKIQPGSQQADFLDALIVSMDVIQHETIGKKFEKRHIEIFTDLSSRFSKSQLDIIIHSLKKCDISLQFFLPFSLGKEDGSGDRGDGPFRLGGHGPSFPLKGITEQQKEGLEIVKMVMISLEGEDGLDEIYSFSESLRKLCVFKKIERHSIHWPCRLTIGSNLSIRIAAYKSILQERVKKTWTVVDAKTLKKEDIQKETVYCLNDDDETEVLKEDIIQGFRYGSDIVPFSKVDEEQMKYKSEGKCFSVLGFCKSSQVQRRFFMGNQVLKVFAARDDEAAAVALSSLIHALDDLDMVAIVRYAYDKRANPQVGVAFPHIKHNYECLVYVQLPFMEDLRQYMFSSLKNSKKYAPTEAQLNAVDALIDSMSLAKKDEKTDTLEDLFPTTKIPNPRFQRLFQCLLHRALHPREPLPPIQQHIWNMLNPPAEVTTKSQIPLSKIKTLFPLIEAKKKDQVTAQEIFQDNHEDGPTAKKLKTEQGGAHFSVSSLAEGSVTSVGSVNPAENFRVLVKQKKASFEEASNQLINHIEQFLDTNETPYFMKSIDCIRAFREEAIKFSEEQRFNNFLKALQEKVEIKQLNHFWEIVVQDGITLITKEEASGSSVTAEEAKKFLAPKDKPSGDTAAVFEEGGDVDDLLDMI

As to `O=C(Oc1c(F)c(F)c(F)c(F)c1F)C(c1ccccc1)c1ccccc1` [fragment 20, Pentafluorophenyl 2,2-diphenylacetate], the “R value (DMSO/fragment) for probe 1 labeling” value (from here on “R value (DMSO/fragment)”) in assay [1] worked out at 1.0; in assay [2] it was 1.5; in assay [3], 1.1; in assay [4], 1.1; in assay [5], 2.3.

As for `O=C(Oc1c(F)c(F)c(F)c(F)c1F)c1cc(C(F)(F)F)cc(C(F)(F)F)c1` [fragment 21, Pentafluorophenyl 3,5-bis(trifluoromethyl)benzoate], the “R value (DMSO/fragment)” value came to 1.4 in assay [1]; 1.4 in assay [2]; 1.3 in assay [3]; 0.9 in assay [4]; 1.4 in assay [5].

For `Cn1cc(CC(=O)Oc2c(F)c(F)c(F)c(F)c2F)c2ccccc21` [fragment 22, Pentafluorophenyl 2-(1-methyl-1H-indol-3-yl)acetate], the “R value (DMSO/fragment)” value in assay [1] is 1.1; in assay [2], 2.2; in assay [3], 1.1; in assay [4], 2.2; in assay [5], 3.6.

For `O=C(CN1C(=O)c2ccccc2C1=O)Oc1c(F)c(F)c(F)c(F)c1F` [fragment 27, Pentafluorophenyl 2-(1,3-dioxoisoindolin-2-yl)acetate], the “isoTOP-ABPP reactivity ratio at lysine Q14204_K1649” value in assay [1] amounted to 4.2. Moreover, in assay [2], the “isoTOP-ABPP reactivity ratio at lysine Q9NZ08_K685” value is 5.7. For the same compound, in assay [3], the “isoTOP-ABPP reactivity ratio at lysine Q969Y2_K492” value is given as 1.6. Further, in assay [4], the “isoTOP-ABPP reactivity ratio at lysine Q14CX7_K575” value came to 1.4. Besides, the “isoTOP-ABPP reactivity ratio at lysine P12956_K351” value in assay [5] came out at 3.1.

Take `O=C(CCc1cn(-c2ccccc2)nc1-c1ccccc1)Oc1ccc([N+](=O)[O-])cc1[N+](=O)[O-]` [fragment 29, 2,4-Dinitrophenyl 3-(1,3-diphenyl-1H-pyrazol-4-yl)propanoate]: the “isoTOP-ABPP reactivity ratio at lysine Q14204_K1649” value in assay [1] was determined as 1.1. The “isoTOP-ABPP reactivity ratio at lysine Q9NZ08_K685” value in assay [2] turned out to be 1.0. In assay [3], the “isoTOP-ABPP reactivity ratio at lysine Q969Y2_K492” value is on record as 20.0. Moreover, in assay [4], the “isoTOP-ABPP reactivity ratio at lysine Q14CX7_K575” value turned out to be 1.1. Moreover, the “isoTOP-ABPP reactivity ratio at lysine P12956_K351” value in assay [5] turned out to be 3.2.

`Cn1cc(CC(=O)Oc2ccc([N+](=O)[O-])cc2[N+](=O)[O-])c2ccccc21` [fragment 32, 2,4-Dinitrophenyl 2-(1-methyl-1H-indol-3-yl)acetate]: the “isoTOP-ABPP reactivity ratio at lysine Q14204_K1649” value in assay [1] amounted to 1.2. In addition, in assay [2], the “isoTOP-ABPP reactivity ratio at lysine Q9NZ08_K685” value came to 2.8. Moreover, in assay [3], the “isoTOP-ABPP reactivity ratio at lysine Q969Y2_K492” value was determined as 1.8. For the same compound, the “isoTOP-ABPP reactivity ratio at lysine Q14CX7_K575” value in assay [4] is listed as 2.4. The “isoTOP-ABPP reactivity ratio at lysine P12956_K351” value in assay [5] came out at 13.4.

As for `O=C(CCc1coc2cc(F)ccc2c1=O)Oc1ccc([N+](=O)[O-])cc1[N+](=O)[O-]` [fragment 36, 2,4-Dinitrophenyl 3-(7-fluoro-4-oxo-4H-chromen-3-yl)propanoate], in assay [1], the “isoTOP-ABPP ratio (R) at liganded lysine Q14204_K1649” value is given as 1.2. Also, the “isoTOP-ABPP ratio (R) at liganded lysine Q9NZ08_K685” value in assay [2] is on record as 1.1. Also, the “isoTOP-ABPP ratio (R) at liganded lysine Q969Y2_K492” value in assay [3] was 2.9. In addition, in assay [4], the “isoTOP-ABPP ratio (R) at liganded lysine Q14CX7_K575” value was 1.5. Also, in assay [5], the “isoTOP-ABPP ratio (R) at liganded lysine P12956_K351” value is on record as 2.1.

As to `O=C(Oc1ccc([N+](=O)[O-])cc1[N+](=O)[O-])c1ccc(-c2ccccc2)cc1` [fragment 37, 2,4-Dinitrophenyl [1,1′-biphenyl]-4-carboxylate], the “isoTOP-ABPP ratio (R) at liganded lysine Q9NZ08_K685” value in assay [2] turned out to be 1.0. Further, the “isoTOP-ABPP ratio (R) at liganded lysine Q969Y2_K492” value in assay [3] is listed as 1.2. Further, in assay [4], the “isoTOP-ABPP ratio (R) at liganded lysine Q14CX7_K575” value is on record as 0.9. The “isoTOP-ABPP ratio (R) at liganded lysine P12956_K351” value in assay [5] is on record as 1.3.

On to `O=C(Oc1ccc([N+](=O)[O-])cc1[N+](=O)[O-])c1ccc(Oc2ccccc2)cc1` [fragment 39, 2,4-Dinitrophenyl 4-phenoxybenzoate], for which the “isoTOP-ABPP ratio (R) at liganded lysine Q14204_K1649” value in assay [1] is given as 1.0. Also, in assay [2], the “isoTOP-ABPP ratio (R) at liganded lysine Q9NZ08_K685” value was determined as 1.0. Also, in assay [3], the “isoTOP-ABPP ratio (R) at liganded lysine Q969Y2_K492” value was 1.2. For the same compound, in assay [4], the “isoTOP-ABPP ratio (R) at liganded lysine Q14CX7_K575” value was 1.0. For the same compound, the “isoTOP-ABPP ratio (R) at liganded lysine P12956_K351” value in assay [5] is 1.6.

Consider `O=C(Oc1ccc([N+](=O)[O-])cc1[N+](=O)[O-])c1ccccc1Nc1cccc(C(F)(F)F)c1` [fragment 40, 2,4-Dinitrophenyl 2-((3-(trifluoromethyl)phenyl)amino)benzoate], for which the “isoTOP-ABPP ratio (R) at liganded lysine Q14204_K1649” value in assay [1] is recorded as 0.8. Also, in assay [2], the “isoTOP-ABPP ratio (R) at liganded lysine Q9NZ08_K685” value is 1.1. Also, the “isoTOP-ABPP ratio (R) at liganded lysine Q969Y2_K492” value in assay [3] amounted to 0.6. Besides, in assay [4], the “isoTOP-ABPP ratio (R) at liganded lysine Q14CX7_K575” value is 0.8. For the same compound, in assay [5], the “isoTOP-ABPP ratio (R) at liganded lysine P12956_K351” value was 1.0.

On to `N#Cc1ccc(C(=O)Oc2ccc([N+](=O)[O-])cc2[N+](=O)[O-])cc1` [fragment 44, 2,4-Dinitrophenyl 4-cyanobenzoate], for which the “isoTOP-ABPP ratio, lysine Q14204_K1649” value in assay [1] was 1.3. Further, in assay [2], the “isoTOP-ABPP ratio, lysine Q9NZ08_K685” value is listed as 1.6. In addition, the “isoTOP-ABPP ratio, lysine Q969Y2_K492” value in assay [3] was found to be 0.9. The “isoTOP-ABPP ratio, lysine Q14CX7_K575” value in assay [4] is 0.8. Moreover, the “isoTOP-ABPP ratio, lysine P12956_K351” value in assay [5] amounted to 1.1.

In the case of `O=C(CCc1ccc2c(c1)OCO2)Oc1ccc([N+](=O)[O-])cc1[N+](=O)[O-]` [fragment 45, 2,4-Dinitrophenyl 3-(benzo[d][1,3]dioxol-5-yl)propanoate], in assay [1], the “isoTOP-ABPP ratio, lysine Q14204_K1649” value turned out to be 1.0. Further, the “isoTOP-ABPP ratio, lysine Q9NZ08_K685” value in assay [2] was 1.3. In assay [3], the “isoTOP-ABPP ratio, lysine Q969Y2_K492” value amounted to 1.4. In addition, the “isoTOP-ABPP ratio, lysine Q14CX7_K575” value in assay [4] is 1.2. Further, the “isoTOP-ABPP ratio, lysine P12956_K351” value in assay [5] is 1.9.

In the case of `O=C(Oc1c(F)c(F)cc(F)c1F)c1cc(C(F)(F)F)cc(C(F)(F)F)c1` [fragment 48, 2,3,5,6-Tetrafluorophenyl 3,5-bis(trifluoromethyl)benzoate], the “isoTOP-ABPP ratio, lysine Q9NZ08_K685” value in assay [2] came to 1.5. The “isoTOP-ABPP ratio, lysine Q969Y2_K492” value in assay [3] was determined as 1.4. For the same compound, the “isoTOP-ABPP ratio, lysine Q14CX7_K575” value in assay [4] worked out at 1.1. The “isoTOP-ABPP ratio, lysine P12956_K351” value in assay [5] was determined as 1.5.
